Data taken from ChEMBL document CHEMBL1147563, “Solid-phase synthesis and SAR of 4-carboxy-2-azetidinone mechanism-based tryptase inhibitors” (Bioorg Med Chem Lett, 2004).

Legend:
Tryptase = Tryptase (Homo sapiens, UniProt Q9BZJ3+Q15661+Q9NRR2); test: Inhibitory activity against human tryptase
[1] = biological target: T1, Serine protease 1 (Bos taurus) (UniProt P00760); test: Inhibition of bovine trypsin at 0.2 uM
T1 sequence (whole entry): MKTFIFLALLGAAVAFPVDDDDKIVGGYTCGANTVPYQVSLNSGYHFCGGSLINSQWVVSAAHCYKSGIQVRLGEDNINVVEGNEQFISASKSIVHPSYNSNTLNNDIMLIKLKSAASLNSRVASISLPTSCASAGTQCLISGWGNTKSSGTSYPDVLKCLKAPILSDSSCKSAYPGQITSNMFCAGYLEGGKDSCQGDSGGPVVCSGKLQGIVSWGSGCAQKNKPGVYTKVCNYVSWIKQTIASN

Serine protease 1 [2] = biological target: T2, Serine protease 1 (Bos taurus, UniProt P00760); test: Inhibitory activity against bovine trypsin
T2 sequence (P00760 whole entry): T1 sequence (whole entry)

[3] = biological target: Urokinase-type plasminogen activator (Homo sapiens, UniProt P00749); test: Inhibitory activity against Urokinase-type plasminogen activator
[4] = biological target: Tissue-type plasminogen activator (Homo sapiens, UniProt P00750); test: Inhibitory activity against tissue type plasminogen activator
Plasminogen = Plasminogen (Rattus norvegicus, UniProt Q01177); test: Inhibitory activity against plasmin
Serine protease 1 [5] = biological target: Serine protease 1 (Homo sapiens, UniProt P07477); test: Inhibitory activity against trypsin
Coagulation factor X = Coagulation factor X (Homo sapiens, UniProt P00742); test: Inhibitory activity against Coagulation factor X
Prothrombin = Prothrombin (Homo sapiens, UniProt P00734); test: Inhibitory activity against thrombin

Plasminogen, sequence (Q01177 97-581 limits assumed): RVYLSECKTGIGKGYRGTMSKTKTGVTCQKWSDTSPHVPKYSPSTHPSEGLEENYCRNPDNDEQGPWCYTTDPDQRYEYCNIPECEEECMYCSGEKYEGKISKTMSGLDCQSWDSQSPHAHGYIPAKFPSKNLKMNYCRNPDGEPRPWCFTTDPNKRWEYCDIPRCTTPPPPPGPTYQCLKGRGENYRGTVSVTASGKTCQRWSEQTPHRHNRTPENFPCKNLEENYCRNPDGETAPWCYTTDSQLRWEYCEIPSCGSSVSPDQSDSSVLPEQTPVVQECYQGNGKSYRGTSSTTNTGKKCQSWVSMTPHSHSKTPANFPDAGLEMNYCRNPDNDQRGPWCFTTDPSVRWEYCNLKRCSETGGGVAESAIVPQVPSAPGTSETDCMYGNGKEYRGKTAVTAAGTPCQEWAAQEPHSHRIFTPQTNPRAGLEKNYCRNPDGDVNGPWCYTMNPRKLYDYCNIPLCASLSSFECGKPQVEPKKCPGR
Plasminogen, sequence (Q01177 582-812 limits assumed): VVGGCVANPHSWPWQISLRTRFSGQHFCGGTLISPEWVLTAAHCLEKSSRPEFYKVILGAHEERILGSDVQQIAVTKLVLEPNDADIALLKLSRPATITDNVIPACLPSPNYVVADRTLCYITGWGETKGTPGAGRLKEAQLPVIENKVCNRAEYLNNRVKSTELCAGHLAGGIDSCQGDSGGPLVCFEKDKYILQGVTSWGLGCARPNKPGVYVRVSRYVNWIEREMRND
Serine protease 1 (Homo sapiens, UniProt P07477), sequence (P07477 whole entry): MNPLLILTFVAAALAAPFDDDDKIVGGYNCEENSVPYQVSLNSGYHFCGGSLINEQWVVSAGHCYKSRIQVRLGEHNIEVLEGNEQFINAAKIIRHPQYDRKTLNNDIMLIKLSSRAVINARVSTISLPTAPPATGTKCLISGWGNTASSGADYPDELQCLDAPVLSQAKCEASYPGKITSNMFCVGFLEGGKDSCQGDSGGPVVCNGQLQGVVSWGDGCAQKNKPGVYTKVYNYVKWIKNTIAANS
Tissue-type plasminogen activator, sequence (P00750 whole entry): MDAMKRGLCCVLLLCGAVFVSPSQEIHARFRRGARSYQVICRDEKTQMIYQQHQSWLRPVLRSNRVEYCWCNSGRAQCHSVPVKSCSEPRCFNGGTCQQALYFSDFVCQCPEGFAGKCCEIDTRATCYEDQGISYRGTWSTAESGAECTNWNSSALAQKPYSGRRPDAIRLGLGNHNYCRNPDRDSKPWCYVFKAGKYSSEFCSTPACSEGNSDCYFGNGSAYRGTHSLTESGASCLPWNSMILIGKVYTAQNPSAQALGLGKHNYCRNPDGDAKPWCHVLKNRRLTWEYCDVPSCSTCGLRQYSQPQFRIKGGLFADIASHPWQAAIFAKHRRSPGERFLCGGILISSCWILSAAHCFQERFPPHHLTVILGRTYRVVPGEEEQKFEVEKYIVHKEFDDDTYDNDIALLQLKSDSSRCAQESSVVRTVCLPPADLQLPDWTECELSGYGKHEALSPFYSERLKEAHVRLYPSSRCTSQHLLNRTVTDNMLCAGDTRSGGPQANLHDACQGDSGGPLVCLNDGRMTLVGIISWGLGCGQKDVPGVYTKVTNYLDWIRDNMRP
Coagulation factor X, sequence (P00742 41-179 limits assumed): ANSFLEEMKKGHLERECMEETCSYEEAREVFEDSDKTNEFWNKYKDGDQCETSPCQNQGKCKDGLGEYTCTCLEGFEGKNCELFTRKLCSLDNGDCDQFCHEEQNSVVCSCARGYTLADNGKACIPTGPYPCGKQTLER
Coagulation factor X, sequence (P00742 235-488 limits assumed): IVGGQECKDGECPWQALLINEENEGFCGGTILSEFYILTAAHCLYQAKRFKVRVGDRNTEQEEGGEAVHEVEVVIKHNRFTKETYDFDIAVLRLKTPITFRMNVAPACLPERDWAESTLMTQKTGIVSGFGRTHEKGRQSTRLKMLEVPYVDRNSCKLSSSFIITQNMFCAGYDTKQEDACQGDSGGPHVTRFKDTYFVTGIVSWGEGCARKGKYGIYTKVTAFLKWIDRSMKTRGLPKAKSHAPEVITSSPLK

Structure (SMILES) | IC50 (Tryptase) [nM] | inhibition [1] [%] | IC50 (Serine protease 1 [2]) [nM] | other results
Cc1onc(-c2ccccc2)c1C(=O)N1CCN(C(=O)N2C(=O)[C@H](CC3CCNCC3)C2C(=O)O)CC1 (single isomer, unassigned) | 290 | 31 |  | 
Cc1cccc(CCC(=O)N2CCN(C(=O)N3C(=O)[C@H](CC4CCNCC4)C3C(=O)O)CC2)c1 (single isomer, unassigned) | 13 |  | 1200 | 
CC1=NN(c2ccc(C(=O)N3CCN(C(=O)N4C(=O)[C@H](CC5CCNCC5)C4C(=O)O)CC3)cc2)C(=O)C1 (single isomer, unassigned) | 380 | 91 |  | 
O=C(O)C1[C@@H](CC2CCNCC2)C(=O)N1C(=O)N1CCN(C(=O)Cc2ccc3ccccc3c2)CC1 (single isomer, unassigned) | 70 | 22 |  | 
O=C(O)C1[C@@H](CC2CCNCC2)C(=O)N1C(=O)N1CCN(C(=O)CCCc2ccc3ccccc3c2)CC1 (single isomer, unassigned) | 10 |  | 600 | 
O=C(O)C1[C@@H](CC2CCNCC2)C(=O)N1C(=O)N1CCN(C(=O)Cc2ccc(Oc3ccccc3)cc2)CC1 (single isomer, unassigned) | 5 |  | 950 | 
O=C(O)C1[C@@H](CC2CCNCC2)C(=O)N1C(=O)N1CCN(C(=O)CCCCCc2ccccc2)CC1 (single isomer, unassigned) |  |  | 310 | IC50 [3]: 970 nM; IC50 [4]: > 33000 nM; IC50 (Plasminogen): 170 nM; IC50 (Serine protease 1 [5]): 310 nM
O=C(O)C1[C@@H](CC2CCNCC2)C(=O)N1C(=O)N1CCN(C(=O)Cc2cccc(Oc3ccccc3)c2)CC1 (single isomer, unassigned) | 17 |  | 970 | 
O=C(O)C1[C@@H](CC2CCNCC2)C(=O)N1C(=O)N1CCN(C(=O)c2ccc(-c3ccccc3)cc2)CC1 (single isomer, unassigned) | 6 |  | 120 | 
O=C(O)C1[C@@H](CC2CCNCC2)C(=O)N1C(=O)N1CCN(C(=O)CCCCCc2cccc3ccccc23)CC1 (single isomer, unassigned) | 1 |  | 240 | 
CC(=O)Nc1ccsc1C(=O)N1CCN(C(=O)N2C(=O)[C@H](CC3CCNCC3)C2C(=O)O)CC1 (single isomer, unassigned) | 190 | 68 |  | 
O=C(O)C1[C@@H](CC2CCNCC2)C(=O)N1C(=O)N1CCN(C(=O)c2cccc(Oc3ccccc3)c2)CC1 (single isomer, unassigned) | 15 | 78 |  | 
N=C(N)N1CCC[C@H](C[C@H]2C(=O)N(C(=O)N3CCN(C(=O)CCCCCc4ccccc4)CC3)[C@@H]2C(=O)O)C1 | 1.7 |  | 5760 | 
O=C(O)C1[C@@H](CC2CCNCC2)C(=O)N1C(=O)N1CCN(C(=O)CCCCCCc2cccc3ccccc23)CC1 (single isomer, unassigned) | 1 |  | 320 | 
O=C(O)C1[C@@H](CC2CCNCC2)C(=O)N1C(=O)N1CCN(C(=O)CCCCCCCc2ccccc2)CC1 (single isomer, unassigned) | 5 |  | 1300 | 
Cc1ccc(C2=CN=C(CCC(=O)N3CCN(C(=O)N4C(=O)[C@H](CC5CCNCC5)C4C(=O)O)CC3)C2=O)cc1 (single isomer, unassigned) | 5 |  | 1800 | 
CCCCCCc1ccc(-c2ccc(C(=O)N3CCN(C(=O)N4C(=O)[C@H](CC5CCNCC5)C4C(=O)O)CC3)cc2)cc1 (single isomer, unassigned) | 120 |  | 1200 | 
O=C(O)C1[C@@H](CC2CCNCC2)C(=O)N1C(=O)N1CCN(C(=O)Cc2ccc(OCc3ccccc3)cc2)CC1 (single isomer, unassigned) | 1 |  | 440 | IC50 [3]: 1210 nM; IC50 [4]: > 33000 nM; IC50 (Plasminogen): 380 nM; IC50 (Serine protease 1 [5]): 440 nM
O=C(O)C1[C@@H](CC2CCNCC2)C(=O)N1C(=O)N1CCN(C(=O)CCCC2CCCCC2)CC1 (single isomer, unassigned) | 24 | 40 |  | 
O=C(O)C1[C@@H](CC2CCNCC2)C(=O)N1C(=O)N1CCN(C(=O)c2ccc(CCCc3ccccc3)cc2)CC1 (single isomer, unassigned) | 6 |  | 310 | 
O=C(O)C1[C@@H](CC2CCNCC2)C(=O)N1C(=O)N1CCN(C(=O)c2ccc(C3CCCCC3)cc2)CC1 (single isomer, unassigned) | 40 | 76 |  | 
O=C(O)C1[C@@H](CC2CCNCC2)C(=O)N1C(=O)N1CCN(C(=O)CCCCc2ccccc2)CC1 (single isomer, unassigned) | 6 |  | 810 | 
O=C(O)C1[C@@H](CC2CCNCC2)C(=O)N1C(=O)N1CCN(C(=O)CCCCCc2ccc3ccccc3c2)CC1 (single isomer, unassigned) | 1 |  | 320 | 

Structure (SMILES) | IC50 (Tryptase) [nM] | inhibition [1] [%] | IC50 (Serine protease 1 [2]) [nM] | other results
O=C(CCCC(=O)N1CCN(C(=O)N2C(=O)[C@H](CC3CCNCC3)C2C(=O)O)CC1)Nc1ccccc1 (single isomer, unassigned) | 12 |  | 1350 | 
O=C(O)C1[C@@H](CC2CCNCC2)C(=O)N1C(=O)N1CCN(C(=O)CCCCCCc2ccccc2)CC1 (single isomer, unassigned) | 5 |  | 1300 | 
O=C(NCCCC(=O)N1CCN(C(=O)N2C(=O)[C@H](CC3CCNCC3)C2C(=O)O)CC1)OCc1ccccc1 (single isomer, unassigned) | 6 |  | 1200 | 
O=C(O)C1[C@@H](CC2CCNCC2)C(=O)N1C(=O)N1CCN(C(=O)c2ccc(Oc3ccccc3)cc2)CC1 (single isomer, unassigned) | 7 |  | 140 | 
O=C(O)C1[C@@H](CC2CCNCC2)C(=O)N1C(=O)N1CCN(C(=O)c2ccc(OCc3ccccc3)cc2)CC1 (single isomer, unassigned) | 4 |  | 120 | 
O=C(O)C1[C@@H](CC2CCNCC2)C(=O)N1C(=O)N1CCN(C(=O)CCCc2nc(-c3ccc(Cl)cc3)no2)CC1 (single isomer, unassigned) | 5 |  | 150 | 
O=C(O)C1[C@@H](CC2CCNCC2)C(=O)N1C(=O)N1CCN(C(=O)c2ccc3ccccc3n2)CC1 (single isomer, unassigned) | 110 | 51 |  | 
O=C(O)C1[C@@H](CC2CCNCC2)C(=O)N1C(=O)N1CCN(C(=O)Cc2ccc3c(c2)CCCC3)CC1 (single isomer, unassigned) | 30 | 18 |  | 
CC(C)(C)NC(=O)N1CCN(C(=O)N2C(=O)[C@H](CCCN=C(N)N)C2C(=O)O)CC1 (single isomer, unassigned) |  |  | 72 | IC50 [4]: > 8250 nM; IC50 (Plasminogen): 430 nM; IC50 (Serine protease 1 [5]): 4.5 nM
O=C(O)C1[C@@H](CC2CCNCC2)C(=O)N1C(=O)N1CCN(C(=O)c2ccccc2CCc2ccccc2)CC1 (single isomer, unassigned) | 140 | 60 |  | 
O=C(O)C1[C@@H](CC2CCNCC2)C(=O)N1C(=O)N1CCN(C(=O)Cc2ccc(CCCc3ccccc3)cc2)CC1 (single isomer, unassigned) | 9 |  | 1580 | 
O=C(O)C1[C@@H](CC2CCNCC2)C(=O)N1C(=O)N1CCN(C(=O)c2ccccc2Oc2ccccc2)CC1 (single isomer, unassigned) | 120 | 2 |  | 
COc1cccc(CCC(=O)N2CCN(C(=O)N3C(=O)[C@H](CC4CCNCC4)C3C(=O)O)CC2)c1 (single isomer, unassigned) | 14 |  | 810 | 
O=C(O)C1[C@@H](CC2CCNCC2)C(=O)N1C(=O)N1CCN(C(=O)c2ccc3ccccc3c2)CC1 (single isomer, unassigned) |  | 72 |  | 
O=C(O)C1[C@@H](CC2CCNCC2)C(=O)N1C(=O)N1CCN(C(=O)c2cc3cc(F)ccc3[nH]2)CC1 (single isomer, unassigned) | 450 | 63 |  | 
O=C1CC[C@@H](C(=O)N2CCN(C(=O)N3C(=O)[C@H](CC4CCNCC4)C3C(=O)O)CC2)N1 (single isomer, unassigned) | 170 | 69 |  | 
O=C(O)C1[C@@H](CC2CCNCC2)C(=O)N1C(=O)N1CCN(C(=O)Cc2ccc(-c3ccccc3)cc2)CC1 (single isomer, unassigned) | 5 |  | 740 | 
CC(C)(C)NC(=O)N1CCN(C(=O)N2C(=O)[C@H](CC3CCNCC3)[C@H]2C(=O)O)CC1 | 30 |  | 1900 | IC50 [3]: 34 nM; IC50 [4]: > 1100 nM; IC50 (Coagulation factor X): > 1100 nM; IC50 (Prothrombin): > 1100 nM; IC50 (Plasminogen): 250 nM; IC50 (Serine protease 1 [5]): 62 nM
O=C(O)C1[C@@H](CC2CCNCC2)C(=O)N1C(=O)N1CCN(C(=O)c2cc3ccccc3o2)CC1 (single isomer, unassigned) | 21 | 89 |  | 
O=C(O)C1[C@@H](CC2CCNCC2)C(=O)N1C(=O)N1CCN(C(=O)Cc2ccc3c(c2)OCO3)CC1 (single isomer, unassigned) | 55 | 19 |  | 
O=C(CCC(=O)N1CCN(C(=O)N2C(=O)[C@H](CC3CCNCC3)C2C(=O)O)CC1)NCCc1ccccc1 (single isomer, unassigned) | 17 |  | 1900 | 
O=C(O)C1[C@@H](CC2CCNCC2)C(=O)N1C(=O)N1CCN(C(=O)c2ccccc2-c2ccccc2)CC1 (single isomer, unassigned) | 42 | 46 |  | 
